# pKi: −log10 of the molar value. Structures can show the parent of a compound that is named as a salt.
# Molecular target: T1, Dopamine D2 receptor (Homo sapiens, UniProt P14416)
# T1 construct: purchased Receptor Biology (now owned by NEN) RBHD2CM
# Assay: Dopamine D2 receptor binding assay ([125I]iodospiperone)
# Conditions: relative Ki scale of Table 5; read-out: Relative D2 Receptor Binding Affinity Ki
# Protocol: The assay buffers used are 50 mM Tris-HCl pH 7.4, 120 mM NaCl, 5 mM KCl, 5 mM MgCl2, 1 mM EDTA for the Dopamine D2s receptor binding assay. […] The membranes used are from Receptor Biology (now owned by NEN), Cat # RBHD2CM for the D2 receptor.
# Compounds are obtained as 10 mM stocks in 100% DMSO. They are diluted to 1 mM in 100% DMSO by adding 180 μL DMSO to 20 μL of stock in 96 well plates using a multidrop. […] This is done using a TECAN robot.
# The radioligand is diluted in assay buffer to provide 0.1 nM for the D2 assay. Each vial of membranes is diluted up to 92 mL in assay buffer. The final assay volume is 250 μL consisting of 210 μl of diluted membranes, 20 μL of compound or 10% DMSO for total binding, and 20 μL of diluted radioligand. The compounds are transferred from drug dilution plates into coming 96 well assay plates using a 96 well Multimek pipettor. Radioligand and membranes are added to assay plates using multidrop pipettors. Non-specific binding is determined in wells containing a final concentration of 5 μM haloperidol. The final drug concentration range in half logs is from 10 μM down to 0.1 nM.
# After addition of drug, membrane, and ligand, the plates are incubated for 2 hours at room temperature. During this time 96 well Millipore filter plates (MAFBNOB50) are soaked for a least 30 minutes with 200 μL per well of 0.5% polyethyleneimine.
# The 0.5% PEI is removed from filterplate wells using a TiterTek MAP aspirator and 200 μL of the incubation mixture is transferred from the incubation plate to the filterplate after mixing. This transfer is done using the 96 tip Mutimek pipettor. After transfer to the filterplate filterplates are extracted and ished twice with 220 μL per well of cold buffer on the MAP aspirator. The peel away bottoms are removed from the filterplates and 60 μL per well of microscint 20 scintillation fluid is added per well using a multidrop. […]
# T1 sequence (P14416 1-414 isoform P14416-2): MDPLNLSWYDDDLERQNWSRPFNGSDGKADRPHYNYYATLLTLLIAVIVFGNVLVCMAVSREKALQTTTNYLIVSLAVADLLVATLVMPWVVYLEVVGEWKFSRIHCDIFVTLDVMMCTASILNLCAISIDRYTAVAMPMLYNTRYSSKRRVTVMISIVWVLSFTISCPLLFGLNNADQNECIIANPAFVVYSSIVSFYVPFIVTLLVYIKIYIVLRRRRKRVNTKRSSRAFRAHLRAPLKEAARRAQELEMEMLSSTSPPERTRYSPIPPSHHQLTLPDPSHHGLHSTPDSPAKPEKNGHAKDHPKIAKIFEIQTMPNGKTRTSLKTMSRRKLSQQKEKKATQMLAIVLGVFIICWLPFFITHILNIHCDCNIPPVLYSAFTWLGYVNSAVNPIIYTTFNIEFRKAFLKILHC
row,SMILES,pKi
1,"COCC[C@H]1CN(C2=Nc3ccccc3Nc3cc(C)ccc32)CCN1 [Example 198, (S)-3-Methyl-11-[3-(2-methoxy-ethyl)-piperazin-1-yl]-5H-dibenzo[b,e][1,4]diazepine]",< 6.00
2,"CC(C)c1nc2c(s1)Nc1ccccc1N=C2N1CCN(C)[C@@H](CCO)C1 [Example 326, (S)-2-[4-(2-Isopropyl-4H-3-thia-1,49-triazabenzo[f]azulene-10-yl)-1-methylpiperazin-2-yl]ethanol]",> 8.00
3,"Cc1cc2c(s1)Nc1ccccc1N=C2N1CCN(C)[C@@H](CC(C)(C)O)C1 [Example 370, (S)-2-Methyl-1-[1-methyl-4-(2-methyl-4H-3-thia-4,9-diazabenzo[f]azulene-10-yl)-piperazin-2-yl]-propan-2-ol dihydrochloride]",6.00 to 7.00
4,"COC(C)C[C@H]1CN(C2=Nc3ccccc3Nc3sc(C)cc32)CCN1C (mixture of isomers) [Example 360, 10-[3(S)-(2(S)-Methoxypropyl)-4-methylpiperazin-1-yl]-2-methyl-4H-3-thia-4,9-diazabenzo[f]azulene dihydrochloride and 10-[3(S)-(2(R)-Methoxypropyl)-4-methylpiperazin-1-yl]-2-methyl-4H-3-thia-4,9-diazabenzo[f]azulene dihydrochloride]",6.00 to 7.00
5,"CCCCc1nc2c(s1)Nc1ccccc1N=C2N1CCN[C@@H](CCOC)C1 [Example 305, (S)-10-[3-(2-Methoxy-ethyl)-piperazin-1-yl]-2-butyl-4H-3-thia-1,4,9-triaza-benzo[f]azulene]",7.00 to 8.00
6,"CCOCC[C@H]1CN(C2=Nc3ccccc3Nc3sc(C(C)C)nc32)CCN1C [Example 328, (S)-10-[3-(2-Ethoxyethyl)-4-methylpiperazin-1-yl]-2-isopropyl-4H-3-thia-1,4,9-triazabenzo[f]azulene dihydrochloride]",7.00 to 8.00
7,"CCOCC[C@H]1CN(C2=Nc3ccccc3Nc3sc(C)cc32)CCN1C [Example 268, (S)-10-[3-(2-Ethoxyethyl)-4-methyl-piperazin-1-yl]-2-methyl-4H-3-thia-4,9-diazabenzo[f]azulene dihydrochloride]",7.00 to 8.00
8,"COC(C)C[C@H]1CN(C2=Nc3ccccc3Nc3sc(C(C)C)nc32)CCN1 (mixture of isomers) [Example 361, 10-[3(S)-(2(S)-Methoxy-propyl)-piperazin-1-yl]-2-isopropyl-4H-3-thia-1,4,9-triazabenzo[f]azulene and 10-[3(S)-(2(R)-Methoxy-propyl)-piperazin-1-yl]-2-isopropyl-4H-3-thia-1,4,9-triazabenzo[f]azulene]",> 8.00
9,"COC(C)C[C@H]1CN(C2=Nc3ccccc3Nc3sc(C)cc32)CCN1 (mixture of isomers) [Example 359, 10-[3(S)-(2(S)-Methoxypropyl)-piperazin-1-yl]-2-methyl-4H-3-thia-4,9-diazabenzo[f]azulene and 10-[3(S)-(2(R)-Methoxypropyl)-piperazin-1-yl]-2-methyl-4H-3-thia-4,9-diazabenzo[f]azulene]",7.00 to 8.00
10,"COCC[C@H]1CN(C2=Nc3ccccc3Nc3sc(CO)nc32)CCN1 [Example 312, (S)-10-[3-(2-Methoxy-ethyl)-piperazin-1-yl]-4H-3-thia-1,4,9-triaza-benzo[f]azulene-2-yl-methanol]",6.00 to 7.00
11,"CCOCC[C@H]1CN(C2=Nc3ccccc3Nc3sc(C)nc32)CCN1 [Example 302, (S)-10-[3-(2-Ethoxyethyl)-piperazin-1-yl]-2-methyl-4H-3-thia-1,4,9-triazabenzo[f]azulene]",7.00 to 8.00

# Results, then the compound that gave them:
row,pKi,SMILES
1,> 8.00,"COCC[C@H]1CN(C2=Nc3ccccc3Nc3sc(C(F)(F)F)nc32)CCN1 [Example 314, (S)-10-[3-(2-Methoxy-ethyl)-piperazin-1-yl]-2-trifluoromethyl-4H-3-thia-1,4,9-triaza-benzo[f]azulene]"
2,> 8.00,"COCC[C@H]1CN(C2=Nc3ccccc3Nc3sc(C(F)(F)F)nc32)CCN1C [Example 334, (S)-10-[3-(2-Methoxy-ethyl)-4-methyl-piperazin-1-yl]-2-trifluoromethyl-4H-3-thia-1,4,9-triaza-benzo[f]azulene]"
3,6.00 to 7.00,"CCOC(=O)c1nc2c(s1)Nc1ccccc1N=C2N1CCN(C)[C@@H](CCOC)C1 [Example 333, (S)-10-[3-(2-Methoxy-ethyl)-4-methyl-piperazin-1-yl]-4H-3-thia-1,4,9-triaza-benzo[f]azulene-2-carboxylic acid ethyl ester dihydrochloride]"
4,7.00 to 8.00,"COCC[C@H]1CN(C2=Nc3ccccc3Nc3sc(C(F)(F)F)nc32)CCN1CCCO [Example 355, (S)-3-[2-(2-Methoxy-ethyl)-4-(2-trifluoromethyl-4H-3-thia-1,4,9-triaza-benzo[f]azulene-10-yl)-piperazin-1-yl]-propan-1-ol]"
5,7.00 to 8.00,COCC[C@H]1CN(C2=Nc3ccccc3Nc3sc(C(F)(F)F)nc32)CCN1CCO [Example 353]
6,7.00 to 8.00,"COCC[C@H]1CN(C2=Nc3ccccc3Nc3sc(C(C)C)nc32)CCN1CCO [Example 342, (S)-2-[4-(2-Isopropyl-4H-3-thia-1,4,9-triazabenzo[f]azulene-10-yl)-2-(2-methoxyethyl)piperazin-1-yl]ethanol dihydrochloride]"
7,> 8.00,"COCC[C@H]1CN(C2=Nc3ccccc3Nc3sc(CCC(F)(F)F)nc32)CCN1 [Example 318, (S)-10-[3-(2-Methoxy-ethyl)-piperazin-1-yl]-2-(3,3,3-trifluoro-propyl)-4H-3-thia-1,4,9-triaza-benzo[f]azulene dihydrochloride]"
8,> 8.00,"CCCN1CCN(C2=Nc3ccccc3Nc3sc(C(F)(F)F)nc32)C[C@@H]1CCOC [Example 346, (S)-10-[3-(2-Methoxy-ethyl)-4-propyl-piperazin-1-yl]-2-trifluoromethyl-4H-3-thia-1,4,9-triaza-benzo[f]azulene]"
9,7.00 to 8.00,"COCC[C@H]1CN(C2=Nc3ccccc3Nc3sc(C(F)(F)F)nc32)CCN1CCCF [Example 351, (S)-10-[4-(3-Fluoro-propyl)-3-(2-methoxy-ethyl)-piperazin-1-yl]-2-trifluoromethyl-4H-3-thia-1,4,9-triaza-benzo[f]azulene]"
10,7.00 to 8.00,"CCCc1nc2c(s1)Nc1ccccc1N=C2N1CCN(C)[C@@H](CCOC)C1 [Example 323, (S)-10-[3-(2-Methoxy-ethyl)-4-methyl-piperazin-1-yl]-2-propyl 4H-3-thia-1,4,9-triaza-benzo[f]azulene dihydrochloride]"
11,7.00 to 8.00,"CCc1nc2c(s1)Nc1ccccc1N=C2N1CCN(C)[C@@H](CCOC)C1 [Example 322, (S)-10-[3-(2-Methoxy-ethyl)-4-methyl-piperazin-1-yl]-2-ethyl-4H-3-thia-1,49-triaza-benzo[f]azulene dihydrochloride]"
12,7.00 to 8.00,"CCN1CCN(C2=Nc3ccccc3Nc3sc(C(C)C)nc32)C[C@@H]1CCOC [Example 340, (S)-10-[4-Ethyl-3-(2-methoxyethyl)piperazin-1-yl]-2-isopropyl-4H-3-thia-1,4,9-triazabenzo[f]azulene dihydrochloride]"
13,> 8.00,"COCC[C@H]1CN(C2=Nc3ccccc3Nc3sc(C(F)F)nc32)CCN1C [Example 336, (S)-10-[3-(2-Methoxy-ethyl)-4-methyl-piperazin-1-yl]-2-difluoromethyl 4H-3-thia-1,4,9-triaza-benzo[f]azulene]"

# Reference: patent US7384934B2, “Piperazine substituted aryl benzodiazepines” (Eli Lilly and Company, priority 2002, dated 2008)
